Reference: PubChem BioAssay (NCI)
“And” between values parts separate entries of the source, which are not always exact repeats. Equal values may be shown once.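 Values below derive from 48-hour exposures of cells grown in 96-well plates, with endpoints linearly interpolated between the two concentrations bracketing the appropriate inhibition level. GI50 marks 50% less growth. TGI: total growth inhibition.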

Legend:
Experiment in all cases: NCI anticancer screen, dose series, 48 h
[1] = system: U251 CNS
[2] = system: SK-MEL-5 melanoma
[3] = system: IGROV1 ovarian
[4] = system: SN12C renal
[5] = system: M14 melanoma
[6] = system: A549 NSCLC
[7] = system: ACHN renal
[8] = system: RXF 393 renal
[9] = system: TK-10 renal
[10] = system: SF-268 CNS

Row | Compound | TGI [1] | TGI [2] | TGI [3] | TGI [4] | TGI [5] | TGI [6] | TGI [7] | TGI [8] | TGI [9] | TGI [10] | GI50 [9] | GI50 [1] | GI50 [2] | GI50 [10] | GI50 [3] | GI50 [4] | GI50 [5] | GI50 [6] | GI50 [7] | GI50 [8]
1 | O=C(Nc1nc2ncn(CC(COc3ccccc3)OC(=O)c3ccccc3)c2c(=O)[nH]1)c1ccccc1 (stereo not drawn) | > 100 µM | > 100 µM | > 100 µM | > 100 µM | > 100 µM | > 100 µM | > 100 µM | > 100 µM | – | – | – | – | – | – | – | – | – | – | – | –
2 | c1ccc(CN(Cn2cccn2)Cn2cccn2)nc1 | > 100 µM | > 100 µM | – | > 100 µM | > 100 µM | > 100 µM | > 100 µM | > 100 µM | > 100 µM | > 100 µM | – | – | – | – | – | – | – | – | – | –
3 | CCCc1nc2c(C)cc(-c3nc4ccccc4n3C)cc2n1Cc1ccc(-c2ccccc2C(=O)O)cc1 | 51.8 µM | > 100 µM | > 100 µM | > 100 µM | > 100 µM | > 100 µM | > 100 µM | 82.2 µM | > 100 µM | > 100 µM | 55.8 µM | 20.2 µM | 25.8 µM | 44.1 µM | 43.5 µM | 33.3 µM | 34.5 µM | 22.8 µM | 25.6 µM | 22.4 µM
4 | O=C(NO)C12C3C4C1C1C2C3C41C(=O)NO (stereo not drawn) | > 100 µM | > 100 µM | – | > 100 µM | > 100 µM | > 100 µM | > 100 µM | > 100 µM | > 100 µM | > 100 µM | – | – | – | – | – | – | – | – | – | –
5 | COc1ccc([N+](=O)[O-])c(S(=O)(=O)c2ccc(Cl)cc2)n1 | 21.6 µM | 24.9 µM | 31.3 µM | 16.8 µM | 10.1 µM | 41.9 µM | 4.11 µM | 16.2 µM | 11.7 µM | 17.8 µM | 3.57 µM | 8.69 µM | 12 µM | 4.57 µM | 12.2 µM | 3.82 µM | 3.05 µM | 18.5 µM | 2.08 µM | 4.45 µM
6 | O=c1cnn2c(n1)sc1ccc3ccccc3c12 | > 100 µM | > 100 µM | > 100 µM | > 100 µM | > 100 µM | > 100 µM | > 100 µM | > 100 µM | > 100 µM | > 100 µM | – | – | – | – | – | – | – | – | – | –
7 | COC(=O)CCC/C=C\C[C@H]1C=CC(=O)/C1=C/C[C@@H](O)C/C=C\CC(F)(F)F | 4.32 µM | 3.05 µM | 7.6 µM | 7.38 µM | 4.39 µM | 8.73 µM | 3.97 µM | 3.66 µM | 10.8 µM | 13.8 µM | 3.22 µM | 1.79 µM | 1.64 µM | 2.84 µM | 2.78 µM | 2.53 µM | 1.5 µM | 2.91 µM | 1.95 µM | 1.98 µM
8 | CSc1nc2sc3cc(Cl)ccc3n2c(=N)c1C#N | > 100 µM | > 25.9 µM | > 88.4 µM | > 100 µM | > 100 µM | > 100 µM | > 100 µM | > 100 µM | > 73.3 µM | > 100 µM | 14.1 µM | > 55 µM | 3.2 µM | 14 µM | > 49.2 µM | > 100 µM | > 54.7 µM | 12.2 µM | > 62.2 µM | 19.2 µM
9 | COc1ccc(C2=NN(C(C)=O)C(c3cn(-c4ccccc4)nc3-c3ccc(Cl)cc3)C2)cc1 (stereo not drawn) | > 100 µM | > 100 µM | > 100 µM | > 100 µM | – | – | > 100 µM | > 100 µM | – | > 100 µM | – | 7.44 µM | > 100 µM | 6.2 µM | > 100 µM | > 100 µM | – | – | > 100 µM | 10.5 µM
10 | CC(C)(C)c1ccc(C(O)c2ccc(C(C)(C)C)cc2)cc1 | 25.8 µM | 30.4 µM | 30.6 µM | 25.8 µM | 28.7 µM | 27.2 µM | 30.2 µM | 31.2 µM | 35.6 µM | 34.6 µM | – | – | – | – | – | – | – | – | – | –
11 | CC1C=CC(=O)C(n2cc(F)c(=O)[nH]c2=O)O1 (stereo not drawn) | 29.5 µM | 35.8 µM | 45.2 µM | 38.4 µM | 36.7 µM | 70.8 µM | 36.8 µM | 37.8 µM | 34.4 µM | – | – | – | – | – | – | – | – | – | – | –
12 | NC1=N/C(=C2/CCNC(=O)c3[nH]c(Br)cc32)C(=O)N1 | > 100 µM | > 100 µM | > 100 µM | > 100 µM | > 100 µM | > 100 µM | > 100 µM | > 100 µM | > 54.9 µM | 59.9 µM and > 69.6 µM | – | – | 19.7 µM and 40.6 µM | – | 30.4 µM and 97 µM | – | – | – | – | –
13 | Nc1ccn(C2CC(CO)C(O)C2O)c(=O)n1 (stereo not drawn) | > 57.7 µM | > 57.7 µM | > 57.7 µM | > 57.7 µM | > 57.7 µM | > 57.7 µM | > 57.7 µM | > 57.7 µM | > 57.7 µM | > 57.7 µM | – | – | – | – | – | – | – | – | – | –
14 | C[C@@H]1C=C2C(=O)O[C@@H]3CC[C@H](C1)[C@]23O | 27.5 µM | 24 µM | 10.4 µM | 31.2 µM | 22.8 µM | 47 µM | 16.9 µM | 7.97 µM | – | 30.4 µM | – | 13.9 µM | 10.9 µM | 5.24 µM | 2.87 µM | 5.65 µM | 4.28 µM | 12.7 µM | 3.93 µM | –
15 | NCCNC(=S)S | > 100 µM | > 100 µM | > 100 µM | > 100 µM | > 100 µM | > 100 µM | > 100 µM | > 100 µM | > 100 µM | 31.1 µM | – | – | – | – | – | – | – | – | – | –
16 | COC1=CC(c2ccc[nH]2)=N/C1=C\c1ccc[nH]1 | 12.4 µM | 0.261 µM | 4.7 µM | 19.7 µM | 0.629 µM | 12.6 µM | 11.3 µM | 2.7 µM | 7.79 µM | 15.9 µM | 0.232 µM | 0.379 µM | 0.064 µM | 0.254 µM | 0.172 µM | 0.433 µM | 0.0562 µM | 0.201 µM | 0.226 µM | 0.378 µM
17 | CC1OC(OCC2COC(O)(Oc3c(-c4ccc(O)c(O)c4)oc4cc(O)cc(O)c4c3=O)C(O)C2O)C(O)C(O)C1O (stereo not drawn) | > 100 µM | > 100 µM | > 100 µM | > 100 µM | > 100 µM | > 100 µM | > 100 µM | > 100 µM | > 100 µM | > 100 µM | – | – | – | – | – | – | – | – | – | –
